Our source for the IC50 values is US9062050B2, “Inhibitor of JAK1 and JAK2” (Eli Lilly and Company, priority 2012, dated 2015).

The assay relates to phosphorylation of STAT3. In words: Mia-Paca2-MSD-pSTAT3 cell-based assay. The following applies: Homo sapiens, MIA PaCa-2; Mia-paca2 pancreatic cancer cells, stimulated with conditioned medium; read-out: IC50, inhibits the phosphorylation of STAT3. The protocol:
The Mia-Paca2-MSD (MesoScale Diagnostics)-pSTAT3 cell-based assay is used to examine the potency of compounds at blocking STAT3 phosphorylation in pancreatic cancer cells. Mia-paca2 cells (ATCC) are grown in DMEM complete medium supplemented with 10% FBS at 37° C. in incubator with 5% CO2. Cells are then collected, counted, plated at 4×10^4 cells/well in 96-well plates, and cultured for overnight at 37° C. with 5% CO2. Culture medium is removed from the cells and replaced with serum-free medium containing either vehicle alone (DMSO) or 2× final concentrations of compounds across a range from 0-20 μM at 1:3 dilution (10 dilutions). […] After stimulation, all medium is manually removed as above and cells are lysed in 50 microliters of ice cold 1×MSD lysis buffer (MesoScale Diagnostics, K150DID-2) containing 1×HALT protease and phosphatase inhibitor cocktail ((Thermo Scientific, 78441). The 96-well plates are sealed and then mixed for 2 minutes on an orbital shaker at room temperature, and then immediately frozen at −80° C. overnight. pSTAT3 is detected with the use of the MA6000 MSD Whole Cell Lysate Kit for Phospho-STAT-3 (Tyr 705) (MesoScale Diagnostics, #K150DID-2) as following, plates were blocked with blocking buffer at room temperature for 1-2 hours with shaking, and then washed 4× with washing buffer. […]

The structures appear in SMILES notation.

A word on the IC50: it is the midpoint of a concentration-inhibition curve. Regarding `Cc1cc(Nc2ccc3ncn([C@@H]4CCc5ccc(F)cc54)c3n2)[nH]n1.Cl.Cl` [Example 1, 3-[(1R)-6-fluoro-2,3-dihydro-1H-inden-1-yl]-N-(3-methyl-1H-pyrazol-5-yl)-3H-imidazo[4,5-b]pyridin-5-amine dihydrochloride], the IC50 amounted to 12 nM.
